Where a SMILES comes first, the peptide text is derived from it. [ ]: non-standard residue; d: D form. The star is where a group is joined. ξ: configuration not given here. Doxorubicin(3'-N) = COc1cccc2c1C(=O)c1c(O)c3c(c(O)c1C2=O)C[C@@](O)(C(=O)CO)C[C@@H]3O[C@H]1C[C@H](N*)[C@H](O)[C@H](C)O1; X2 = CC(C)(C)c1nc(-c2cccc(NS(=O)(=O)c3c(F)cccc3F)c2F)c(-c2ccnc(N*)n2)s1; Thyronine(3,5,3'-I3) = N[C@@H](Cc1cc(I)c(Oc2ccc(O)c(I)c2)c(I)c1)C(=O)O; Hexanoyl(6-maleimido) = O=C1C=CC(=O)N1CCCCCC(=O)*; Propanoyl(3-maleimido) = O=C1C=CC(=O)N1CCC(=O)*; PEG6 = NCCOCCOCCOCCOCCOCCOCCC(=O)O; PEG3 = NCCOCCOCCOCCC(=O)O; PEG2 = NCCOCCOCCC(=O)O; ξL = CC(C)CC(N)C(=O)O
Assays:
[1] = test system: M2 macrophages; assay: Cytotoxicity screening, inhibition rate of M2 macrophages at 10 uM; type: cell-based, C57BL/6 mice; details: 10 uM drug per well, 3 wells, relative to the drug-free group
Description: After the cell count in Example 13, the cell concentration was adjusted with the culture medium, and the cells were seeded in a 96-well culture plate at […] of cell suspension per well, wherein the seeding concentration of CD8+ T cells was 100000 cells/well, and the seeding concentration of M2 macrophages was 20000 cells/well. The 96-well plate was incubated overnight for 24 hour at 37° C. in a carbon dioxide (5%) incubator. After 24 hours, 100 ul of cell culture solutions containing different concentrations of drugs were added to the 96-well culture plate. At the same time, a control well (0.1% DMSO) with no drug added and only the corresponding drug solvent and a zero-adjusted well (Blank) with only medium and no cells added was set. Each set was prepared in triplicate and the plates were incubated for 48 hours at 37° C. in a 5% CO2 incubator. After 48 hours, 20 μl MTT (5 mg/ml) was added to each well and the incubation was continued for 4 hours. The culture medium was then gently aspirated, and 150 μl DMSO was added to each well as solvent for dissolution. After dissolution, the absorbance at 490 nm was measured with a microplate reader.
Cytotoxicity screening experiments for some compounds were performed for M2 macrophage inhibition as in embodiment 14.

[2] = Water solubility test (observation and HPLC); type: physicochemical; details: thermodynamic from solid
Description: The compounds prepared in accordance with the examples of the disclosure and the reference compounds C1, C2, C3 and C4 were lyophilized (−70° C.).

[3] = test system: NAFLD model mice; assay: Nonalcoholic fatty liver disease (NAFLD) model mice, serum HDL-C and LDL-C; type: in vivo; details: NAFLD (high-fat diet) C57 mice, IV twice a week for 8 weeks, 12 hour after last administration, normal group 100%; for Change from normal group HDL-C: serum HDL-C; for Change from normal group LDL-C: serum LDL-C
Description: • Methods: C57 mice were randomly divided into normal group (standard diet), model group (high-fat diet), simvastatin group (positive control, 3 mg/kg) and drug group (50 mg/kg), with 6 mice in each group. The normal group was fed with standard diet, and the other groups were fed with high-fat diet to induce NAFLD model. At the same time of modeling, the mice in each group were given the corresponding dose of 48 umol/kg medicine IV twice a week for 8 weeks in total. 12 hour after the last administration, the serum biochemical indicators were determined by automatic biochemical analyzer: High density lipoprotein cholesterol (HDL-C), and low density lipoprotein (LDL-C).

[4] = test system: CT26 tumor; assay: CT26 tumor immune model, tumor suppression and CD8+ T cell analysis; type: in vivo, BALB/c mice
Description: • 1) CT26 cells were purchased from ATCC. […] The corresponding 5×10^6 cells were injected subcutaneously into the back of […] mice. After the size of tumors reached at least 100 mm^3, the mice were randomized into groups. Treatment was then initiated, with the day of treatment initiation being Day 1. • 3) The course of treatment. The drug was administered at an equimolar dose of 36 umol/kg. The control group was given normal saline. The drug was administered once a week for three week. • 4) Tumor CD8+ T cell analysis. Tumor tissue was homogenized, individual cells in the tumor were filtered, dissociated and washed twice with buffer, and then incubated with leukocyte common antigen CD45-PE and CD8-FITC-labeled antibodies for 1 hour at room temperature. The cells were washed twice with phosphate buffered saline containing 1% fetal bovine serum, and then the proportion of T lymphocyte antigen (CD8)-positive cells in leukocyte common antigen (CD45)-positive cells was analyzed by flow cytometry. An increase in the ratio indicates an increase in T lymphocytes and therefore an improvement in the immunity of the animal to the tumor. • 5) The grouping and test results are shown in Table 7.

[5] = test system: HT1080 tumors; assay: HT1080 tumor model in nude mice, 36 umol/kg; type: in vivo; details: Mus musculus, HT-1080, iv, 672 h, read-out: Tumor inhibition rate Day 28
Description: • 1. Animals: nude mice aged 6-8 weeks, all female. • 2. Preparation of tumor models • 1) HT1080 cells were purchased from ATCC and characterized according to the instructions provided. […] Randomization was performed when the tumor size reached 100 mm^3. Treatment was then initiated, and the day of initiation of treatment was counted as Day 1. • 3) Treatment process
According to the clinical application of the corresponding compound, the drug was administered intravenously (IV). The compounds indicated in the table were administered at a low dose and at the same dose of 36 umol/kg.

[6] = test system: Human hepatoma HepG2 cells; assay: Human liver cancer HepG2 tumors in nude mice; type: in vivo; details: Mus musculus, HepG2, iv, 672 h, read-out: Tumor inhibition rate (%) Day 28
Description: • 1. Animals: nude mice aged 6-8 weeks, all female. • 2. Preparation of tumor models
Human hepatoma HepG2 cells were purchased from ATCC and identified according to the instructions provided. […] Randomization was performed when the tumor size reached 100 mm^3.
Treatment was then initiated, and the day of initiation of treatment was counted as Day 1. • 3) Treatment process
According to the clinical application of the corresponding compound, the drug was administered intravenously (IV). The compound and the control drug were administered at a dose of 54 umol/kg, and DOX could only be administered at a dose of 18 umol/kg due to toxicity limitations.

[7] = drug 36 umol/kg once a week for three weeks, PD-1 antibody 5 mg/kg

CC(NC(=O)CCOCCOCCOCCNC(=O)CCN1C(=O)C=CC1=O)C(=O)NC(C)C(=O)NC(CC(N)=O)C(=O)Nc1ccc(COC(=O)N2CC3(C2)C(=O)[O][Pt-2]([NH3+])([NH3+])[O]C3=O)cc1 (stereo not drawn) [QHL-089-N-CBP]
Inhibition rate of M2 macrophages [1]: 97.4%
solubility [2]: > 10000 µg/mL

C[C@H](NC(=O)CCOCCOCCOCCOCCOCCOCCNC(=O)CCN1C(=O)C=CC1=O)C(=O)N[C@@H](C)C(=O)N[C@H](CC(N)=O)C(=O)N[C@@H](Cc1cc(I)c(Oc2ccc(O)c(I)c2)c(I)c1)C(=O)O [QHL-160-T3] ({Propanoyl(3-maleimido)-PEG6}-AA[dN][Thyronine(3,5,3'-I3)]-OH)
solubility [2]: > 10000 µg/mL
Change from normal group HDL-C [3]: 89.4%
Change from normal group LDL-C [3]: 117.5%

CC(NC(=O)CCCCCN1C(=O)C=CC1=O)C(=O)NC(C)C(=O)NC(CC(N)=O)C(=O)Nc1ccc(COC(=O)N2CC3(C2)C(=O)[O][Pt-2]([NH3+])([NH3+])[O]C3=O)cc1 (stereo not drawn) [QHL-140-N-CBP]
Inhibition rate of M2 macrophages [1]: 89.5%
solubility [2]: > 10000 µg/mL

CC(C)CC(NC(=O)[C@@H](CC(N)=O)NC(=O)[C@@H](C)NC(=O)[C@@H](C)NC(=O)CCOCCOCCNC(=O)CCN1C(=O)C=CC1=O)C(=O)Nc1nccc(-c2sc(C(C)(C)C)nc2-c2cccc(NS(=O)(=O)c3c(F)cccc3F)c2F)n1 (stereo partly drawn) [QHL-087-dabrafenib] ({Propanoyl(3-maleimido)-PEG2}-[dA][dA][dN][ξL]-X2)
solubility [2]: > 10000 µg/mL
CD8:CD45 (%) ([4]; CD8-positive among CD45-positive cells in tumor, flow cytometry): 6.4%
Tumor inhibition rate (%) Day 28 [4, 7]: 64.0%
Tumor volume (mm^3) Day 28 [4, 7]: 678.4 ± 348.7 mm^3

C[C@H](NC(=O)CCOCCOCCOCCNC(=O)CCN1C(=O)C=CC1=O)C(=O)N[C@@H](C)C(=O)N[C@H](CC(N)=O)C(=O)N[C@@H](Cc1cc(I)c(Oc2ccc(O)c(I)c2)c(I)c1)C(=O)O [QHL-158-T3] ({Propanoyl(3-maleimido)-PEG3}-AA[dN][Thyronine(3,5,3'-I3)]-OH)
solubility [2]: > 10000 µg/mL
Change from normal group HDL-C [3]: 91.9%
Change from normal group LDL-C [3]: 103.6%

COc1cccc2c1C(=O)c1c(O)c3c(c(O)c1C2=O)C[C@@](O)(C(=O)CO)C[C@@H]3O[C@H]1C[C@H](NC(=O)[C@H](CC(C)C)NC(=O)[C@H](CC(N)=O)NC(=O)[C@H](C)NC(=O)[C@H](C)NC(=O)[C@H](CCC(=O)O)NC(=O)CCCCCN2C(=O)C=CC2=O)[C@H](O)[C@H](C)O1 [QHL-117-DOX] ({Hexanoyl(6-maleimido)}-EAANL-{Doxorubicin(3'-N)})
inhibition in vivo at 36 µmol/kg [5]: 100%
inhibition in vivo at 54 µmol/kg [6]: 100%

CC(NC(=O)CCCN1C(=O)C=CC1=O)C(=O)NC(C)C(=O)NC(CC(N)=O)C(=O)Nc1ccc(COC(=O)N2CC3(C2)C(=O)[O][Pt-2]([NH3+])([NH3+])[O]C3=O)cc1 (stereo not drawn) [QHL-143-N-CBP]
Inhibition rate of M2 macrophages [1]: 78.4%
solubility [2]: > 10000 µg/mL

C[C@H](NC(=O)CCOCCOCCNC(=O)CCN1C(=O)C=CC1=O)C(=O)N[C@@H](C)C(=O)N[C@@H](CC(N)=O)C(=O)N[C@@H](Cc1cc(I)c(Oc2ccc(O)c(I)c2)c(I)c1)C(=O)O [QHL-157-T3] ({Propanoyl(3-maleimido)-PEG2}-AAN[Thyronine(3,5,3'-I3)]-OH)
solubility [2]: > 10000 µg/mL
Change from normal group HDL-C [3]: 94.8%
Change from normal group LDL-C [3]: 110.7%
